Test results reported in patent US20260328779A1, “METHODS AND COMPOSITIONS FOR THE DIAGNOSIS AND TREATMENT OF IGA NEPHROPATHY” (Beth Israel Deaconess Medical Center, Inc., priority 2022, published 2026).

What was measured:
[1] = system: anti-Tn CICs; assay: Dissociation of anti-Tn CICs by glycomimetic treatment (BN-APAGE-WB); format: biochemical, human; details: 100 mM, 2 h at 4° C.; anti-Tn CICs from IgAN patients
Protocol: Furthermore, it was tested whether the anti-Tn IgM immune complexes can be dissociated from Tn(+)IgA1 using compounds that mimic the Tn antigen-glycomimetics. For this purpose, the anti-Tn CICs were affinity-purified from the sera of IgAN patients; the anti-Tn CICs were treated with mock, α-methylGalNAc (glycomimetic compound, αGalNAc), or α-methylGlcNAc (control compound, αGlcNAc), followed by BN-APAGE-WB and probing for IgM, and IgA. […] An IgA1 signal was unable to be detected in mock and α-methylGlcNAc-treated samples (FIG. 5F, lane 1 and 3, bottom), indicating the IgA1 epitopes may be buried within the CICs and thus not available in this native page set-up for WB detection.
Samples (~0.1 mg) or for plain serum (1:200 dilution in PBS, […]) run on BN-APAGE were transferred onto activated PVDF membrane (Cat #IPVH00010, EMD Millipore, wet-transfer system, 40 V for 2 h). The membranes were quickly destained with 100% methanol, washed with TBST, and blocked with 5% (w/vol) non-fat milk in TBST for 1 h at RT. […]
For glycomimetic treatment, purified anti-Tn CICs (~0.1 mg) was pretreated with α-methylGalNAc (100 mM), α-methylGlcNAc (100 mM), or mock in PBS for 2 h at 4° C. on a rotator (10 rpm) and the samples were analyzed by BN-APAGE-WB and probed for IgM and IgA.

[2] = system: anti-Tn antibodies; assay: Inhibition of anti-Tn antibody binding to Tn(+)matrix beads (fluorescent anti-IgM imaging); details: 20 mM preincubation, 30 min on ice; anti-human IgM detection
Source text: To investigate whether the interaction of the anti-Tn antibodies to the Tn(+)matrix is Tn antigen-dependent, fluorescent-tagged secondary antibodies were used to image the antibodies bound to the Tn(+)matrix. Strong staining for bound IgM (FIG. 3C, upper panel, green fluorescent) was observed, but no significant staining for either IgG or IgA (FIG. 3C, middle and bottom panels). The IgG and IgA1 levels in the bound material are thus either relatively low or these antigens could be cryptic within complexes and inaccessible in the context of the beads. […]
~50 ml of human sera was mixed with 1 ml of Tn(+)matrix beads (50% slurry in PBS) at 4° C. […] The concentration of eluted protein was determined by BCA assay (Cat #23225, Thermo Fisher Scientific). Each fraction (Input, Flow through (FT), Washes) was proportionally loaded, except elution 10 ml, and analyzed on SDS-PAGE, and stained with Coomassie, or transferred to nitrocellulose membrane (Cat #1704158, Bio-Rad) using Trans-Blot Turbo Transfer System (Bio-Rad). […] After washing 3× with TBST for 10 min, the signals were analyzed on an Amersham™ Imager 600 (GE Healthcare Life Sciences) using SuperSignal™ West Pico chemiluminescent substrate (Cat #34578, Thermo Scientific). […] The beads were washed twice with chilled 1 ml of PBS, and analyzed using a microscope (AMG EVOS FL digital inverted microscope, Fisher Scientific, ×100 magnification). […]

inhibition of binding of antibodies to the Tn(+)matrix [2]: completely inhibited
Structure (SMILES): CO[C@H]1O[C@H](CO)[C@H](O)[C@H](O)[C@H]1NC(C)=O [α-methylGalNAc]
dissociation of Tn(+)IgA1 from anti-Tn CICs [1]: caused dissociation of the Tn(+)IgA1 from anti-Tn IgM immune complexes
